Experimental data published in article PMC6669608, “Evaluation of Oxasqualenoids from the Red Alga Laurencia viridis against Acanthamoeba” (Marine Drugs, 2019).

Legend:
[1] = test system: Acanthamoeba griffini trophozoites; experiment: In vitro activity against trophozoites of clinical strain A. griffini; assay type: cell-based, genotype T3; conditions: trophozoite stage
Protocol: (§1) Subsequently, DT was tested against two clinical isolates, A. griffini, genotype T3 obtained in a previous study and A. polyphaga genotype T4 ATCC 30461. Those strains were grown axenically in the same medium as A. castellanii Neff.
(§2) The in vitro activities of the different compounds of Laurencia were evaluated using a previously developed colorimetric assay based on the alamarBlue™ Cell Viability Reagent assay (Life Technologies, Barcelona, Spain). Briefly, 50 µL of 5 × 10⁴ trophozoites/mL were seeded onto a 96-well microtiter plate. After 15 min, the adherence of the cells to the plate bottom was confirmed by the use of the inverted microscope Leica DMIL (Leica, Wetzlar, Germany). Furthermore, 50 µL of serial dilutions of each compound was added to the 96-well microtiter plate. Finally, alamarBlue™ was placed into each well at 10% of the final volume and incubated at 26 °C with slight agitation. After 96 h, the fluorescence was measured with EnSpire Multimode Plate Reader (Perkin Elmer, Madrid, Spain) at a wavelength of 570/585 nm. The inhibitory concentration to inhibit the growth of 50% of the parasites (IC50) was calculated through nonlinear regression analysis with 95% confidence limits using the software Sigma Plot 12.0 (Systat Software Inc., London, UK). The experiments were performed three times each, allowing for standard deviation.

A. castellanii Neff = experiment: Analysis of mitochondrial membrane potential (JC-1); assay type: cell-based, Acanthamoeba castellanii Neff; conditions: IC90, 24 h
Protocol: Collapse of the electrochemical gradient across the mitochondrial membrane during apoptosis was detected with the JC-1 mitochondrial membrane potential detection kit (Cell Technology, Fremont, CA, USA). After being treated with IC90 of the test compound for 24 h, the cells were centrifuged (1000 rpm × 10 min) and resuspended in JC-1 buffer. Images were taken on an EVOS FL Cell Imaging System AMF4300 (Life Technologies, San Francisco, CA, USA) from Life Technologies (Madrid, Spain). The staining pattern allows the identification of two groups in a cellular population: live cells will show only red fluorescence; cells with low mitochondrial potential, (undergoing PCD) will show a higher level of green and red fluorescence.

[2] = test system: Acanthamoeba castellanii Neff trophozoites; experiment: In vitro activity against Acanthamoeba trophozoites (alamarBlue colorimetric assay); assay type: cell-based, Acanthamoeba castellanii Neff (ATCC 30010); conditions: trophozoites, 96 h, 26 °C, read-out: IC50 against Acanthamoeba castellanii Neff
Protocol: The antiamoeboid activity of the compounds was evaluated against Acanthamoeba castellanii Neff (ATCC 30010) type strain from the American Type Culture Collection. This strain was axenically incubated in PYG medium (0.75% (w/v) proteose Peptone, 0.75% (w/v) Yeast extract, and 1.5% (w/v) Glucose) supplemented with 10 µg/mL gentamicin (Sigma-Aldrich, Madrid, Spain). As for the cytotoxicity assays, murine macrophages J774A.1 (ATCC TIB-67) were used, cultivated in DMEM medium (Dulbecco’s modified eagle medium, Gibco Life Technologies, California, USA) with 10% supplement of fetal bovine serum (FBS) and 10 µg/mL gentamicin at 37 °C in a 5% CO2 incubator.
as §2

[3] = test system: Acanthamoeba polyphaga trophozoites; experiment: In vitro activity against trophozoites of clinical strain A. polyphaga; assay type: cell-based, Acanthamoeba polyphaga genotype T4 ATCC 30461; conditions: trophozoite stage
Protocol: as §1, §2

In the case of C=C(CC[C@H](O)[C@@]1(C)CC[C@H](C(C)(C)O)O1)[C@H]1CC[C@H]2O[C@@H]([C@]3(C)CC[C@@H](Br)C(C)(C)O3)CC[C@]2(C)O1 [Compound 1, dehydrothyrsiferol], the IC50 [1] is reported as 56.7 ± 2.09 µM, the “mitochondrial membrane potential (JC-1)” value (A. castellanii Neff) is reported as “mitochondrial membrane potential collapsed” and the IC50 [2] is reported as 12.8 ± 1.38 µM. It also gave an IC50 [3] of 73.4 ± 4.02 µM.
